Experiments:
[1] = Evaluation of hygroscopicity by Dynamic Moisture Sorption Analyzer (DVS), with XRPD before and after DVS; format: physicochemical; conditions: for weight increase by hygroscopy (80% RH): DVS; for XRPD change: XRPD before and after DVS
[2] = Stability test (2): salt crystalline forms at high temperature, high humidity and light, detection by HPLC and XRPD; format: physicochemical; conditions: for total impurities (%): HPLC
[3] = 60° C. (open), 5 days, listed as XL
[4] = 60° C. (open), 10 days, listed as XL
[5] = 60° C. (open), 30 days, listed as XL
[6] = light (RT, white light 6980 lux, UV 282 μW/cm2), 5 days, listed as XL
[7] = light (RT, white light 6980 lux, UV 282 μW/cm2), 10 days, listed as XL
[8] = 60° C. (open), 5 days, listed as XXXVI
[9] = 60° C. (open), 10 days, listed as XXXVI
[10] = 60° C. (open), 30 days, listed as XXXVI
[11] = light (RT, white light 6980 lux, UV 282 μW/cm2), 5 days, listed as XXXVI
[12] = light (RT, white light 6980 lux, UV 282 μW/cm2), 10 days, listed as XXXVI
[13] = light (RT, white light 6980 lux, UV 282 μW/cm2), 5 days
[14] = light (RT, white light 6980 lux, UV 282 μW/cm2), 10 days

| SMILES | XRPD change [1] | XPRD ([2]; RT/75% RH (open), 5 days) | XPRD ([2]; RT/75% RH (open), 10 days) | XPRD ([2]; the initial sample, 0 day) | weight increase by hygroscopy (80% RH) [1] [%] | XPRD ([2]; 60° C. (open), 5 days) | XPRD ([2]; 60° C. (open), 10 days) | XPRD ([2]; 60° C. (open), 30 days) | total impurities (%) ([2]; 60° C. (open), 5 days) | total impurities (%) ([2]; 60° C. (open), 10 days) | total impurities (%) ([2]; 60° C. (open), 30 days) | total impurities (%) ([2]; RT/75% RH (open), 5 days) | total impurities (%) ([2]; RT/75% RH (open), 10 days) | total impurities (%) ([2]; RT/75% RH (open), 30 days) | total impurities (%) [2, 13] [%] | total impurities (%) [2, 14] [%] | total impurities (%) ([2]; the initial sample, 0 day) | XPRD ([2]; RT/75% RH (open), 30 days) | XPRD [2, 13] | XPRD [2, 14] | further results |
| --- | --- | --- | --- | --- | --- | --- | --- | --- | --- | --- | --- | --- | --- | --- | --- | --- | --- | --- | --- | --- | --- |
| O=C(NS(=O)(=O)c1ccc(NCC2COCCO2)c([N+](=O)[O-])c1)c1ccc(N2CCN(CC3=C(c4ccc(Cl)cc4)CC4(CCC4)CC3)CC2)cc1Oc1cnc2[nH]ccc2c1 (centres unmarked) [maleate crystalline Form XL] | no change | No change | No change |  |  |  |  |  |  |  |  |  |  |  |  |  |  |  |  |  | weight increase by hygroscopy (80% RH) ([1]; listed as XL): 1.41%; XPRD [2, 3]: No change; XPRD [2, 4]: No change; XPRD [2, 5]: No change; total impurities (%) [2, 3]: 1.15%; total impurities (%) [2, 4]: 1.18%; total impurities (%) [2, 5]: 1.28%; total impurities (%) ([2]; RT/75% RH (open), 5 days, listed as XL): 0.93%; total impurities (%) ([2]; RT/75% RH (open), 10 days, listed as XL): 1.06%; total impurities (%) ([2]; RT/75% RH (open), 30 days, listed as XL): 0.90%; total impurities (%) [2, 6]: 1.08%; total impurities (%) [2, 7]: 1.18%; total impurities (%) ([2]; the initial sample, 0 day, listed as XL): 0.91%; XPRD [2, 6]: No change; XPRD [2, 7]: No change |
| O=C(NS(=O)(=O)c1ccc(NCC2COCCO2)c([N+](=O)[O-])c1)c1ccc(N2CCN(CC3=C(c4ccc(Cl)cc4)CC4(CCC4)CC3)CC2)cc1Oc1cnc2[nH]ccc2c1 (centres unmarked) [citrate crystalline Form XXXVI] | no change |  |  | XXXVI |  |  |  |  |  |  |  |  |  |  |  |  |  |  |  |  | weight increase by hygroscopy (80% RH) ([1]; listed as XXXVI): 2.00%; XPRD [2, 8]: changed; XPRD [2, 9]: changed; XPRD [2, 10]: changed; total impurities (%) [2, 8]: 0.97%; total impurities (%) [2, 9]: 1.01%; total impurities (%) [2, 10]: 0.98%; total impurities (%) ([2]; RT/75% RH (open), 5 days, listed as XXXVI): 0.95%; total impurities (%) ([2]; RT/75% RH (open), 10 days, listed as XXXVI): 0.95%; total impurities (%) ([2]; RT/75% RH (open), 30 days, listed as XXXVI): 1.00%; total impurities (%) [2, 11]: 1.06%; total impurities (%) [2, 12]: 1.36%; total impurities (%) ([2]; the initial sample, 0 day, listed as XXXVI): 1.02%; XPRD [2, 11]: no change; XPRD [2, 12]: no change |
| O=C(NS(=O)(=O)c1ccc(NC[C@H]2COCCO2)c([N+](=O)[O-])c1)c1ccc(N2CCN(CC3=C(c4ccc(Cl)cc4)CC4(CCC4)CC3)CC2)cc1Oc1cnc2[nH]ccc2c1.O=S(=O)(O)O [XXX] | no change | No change | No change | XXX | 0.90 | No change | No change | No change | 0.89 | 0.92 | 0.83 | 0.82 | 0.86 | 0.74 | 0.82 | 1.02 | 0.80 | No change | No change | No change |  |
| Cc1ccc(S(=O)(=O)O)cc1.O=C(NS(=O)(=O)c1ccc(NC[C@H]2COCCO2)c([N+](=O)[O-])c1)c1ccc(N2CCN(CC3=C(c4ccc(Cl)cc4)CC4(CCC4)CC3)CC2)cc1Oc1cnc2[nH]ccc2c1 [XXIX] | no change | No change | No change | XXIX | 0.948 | No change | No change | No change | 0.64 | 0.65 | 0.66 | 0.65 | 0.65 | 0.60 | 0.64 | 0.59 | 0.65 | No change | No change | No change |  |
| O=C(NS(=O)(=O)c1ccc(NC[C@H]2COCCO2)c([N+](=O)[O-])c1)c1ccc(N2CCN(CC3=C(c4ccc(Cl)cc4)CC4(CCC4)CC3)CC2)cc1Oc1cnc2[nH]ccc2c1.O=C(O)/C=C\C(=O)O [XXIV] | changed | No change | No change | XXIV | 1.246 | No change | No change | No change | 0.48 | 0.48 | 0.61 | 0.50 | 0.50 | 0.50 | 0.73 | 0.72 | 0.50 | No change | No change | No change |  |
| O=C(NS(=O)(=O)c1ccc(NC[C@H]2COCCO2)c([N+](=O)[O-])c1)c1ccc(N2CCN(CC3=C(c4ccc(Cl)cc4)CC4(CCC4)CC3)CC2)cc1Oc1cnc2[nH]ccc2c1.O=S(=O)(O)c1ccccc1 [XXVII] | no change | No change | No change | XXVII | 3.32 | No change | No change | No change | 1.26 | 1.37 | 1.33 | 1.22 | 1.25 | 1.27 | 1.20 | 1.28 | 1.19 | No change | No change | No change |  |
| O=C(NS(=O)(=O)c1ccc(NC[C@H]2COCCO2)c([N+](=O)[O-])c1)c1ccc(N2CCN(CC3=C(c4ccc(Cl)cc4)CC4(CCC4)CC3)CC2)cc1Oc1cnc2[nH]ccc2c1.O=C(O)CC(O)(CC(=O)O)C(=O)O [XXXIX] | no change | No change | No change | XXXIX | 0.37 | No change | No change | No change | 0.90 | 0.89 | 0.86 | 0.80 | 0.82 | 0.81 | 0.88 | 1.02 | 0.76 | No change | No change | No change |  |
| CS(=O)(=O)O.O=C(NS(=O)(=O)c1ccc(NC[C@H]2COCCO2)c([N+](=O)[O-])c1)c1ccc(N2CCN(CC3=C(c4ccc(Cl)cc4)CC4(CCC4)CC3)CC2)cc1Oc1cnc2[nH]ccc2c1 [XXXIII] | changed |  |  | XXXIII | 7.82 |  |  |  | 0.90 | 0.91 | 1.11 | 0.67 | 0.71 | 0.70 | 0.84 | 1.09 | 0.67 |  | No change | No change |  |
